Source: patent US8637526B2, “Pyrazolopyrimidine JAK inhibitor compounds and methods” (Genentech, Inc., priority 2008, dated 2014)
pEC50, pKi: −log10 of the molar value. Like-named read-outs stand apart in the source and are kept apart here.

How the values were obtained:
human JAK1 kinase domain = human JAK1 kinase domain (Homo sapiens (Human), UniProt P23458); assay: JAK1 Inhibition Assay Protocol (Caliper LabChip peptide phosphorylation); type: biochemical; details: enzymatic activity, 25 uM ATP
Excerpt: (§1) The catalytically active kinase domain of human JAK1, JAK2, JAK3 or TYK2 was purified from extracts of SF9 insect cells infected with a recombinant baculovirus expression vector encoding the human JAK1, JAK2, JAK3 or TYK2 kinase domains (JAK1 amino acid residues N852-D1154 according to the numbering of GenBank sequence accession number P23458, JAK2 amino acid residues D812-G1132 according to the numbering of GenBank sequence accession number NP_004963.1; JAK3 amino acid residues S783-S1124 according to the numbering of GenBank sequence accession number P52333, and TYK2 amino acid residues N873-C1187 according to the numbering of GenBank sequence accession number P29597). The activity of the JAK1, JAK2, JAK3 or TYK2 kinase domains can be measured by a number of direct and indirect methods, including quantification of phosphorylation of peptide substrates derived from the human JAK3 protein (Saltzman et al., Biochem. Biophys. Res. Commun. 246:627-633 (2004)). The activity of the JAK1, JAK2, JAK3 or TYK2 kinase domains was measured in vitro by monitoring phosphorylation of JAK3 derived peptides using the Caliper LabChip technology.
(§2) The activity of the isolated JAK1 or TYK2 kinase domain was measured by monitoring phosphorylation of a peptide derived from JAK3 ([…] fluorescently labeled on the N-terminus with 5-carboxyfluorescein using the Caliper LabChip technology (Caliper Life Sciences, Hopkinton, Mass.). […] Reactions were incubated at 22° C. in 384-well polypropylene microtiter plates for 30 minutes and then stopped by addition of 25 uL of an EDTA containing solution (100 mM Hepes pH 7.2, 0.015% Brij-35, 150 mM EDTA), resulting in a final EDTA concentration of 50 mM. After termination of the kinase reaction, the proportion of phosphorylated product was determined as a fraction of total peptide substrate using the Caliper LabChip 3000 according to the manufacturer's specifications. Ki values were then determined using the Morrison tight binding model (Morrison, J. F., Biochim. Biophys. Acta. 185:269-296 (1969); William, J. W. and Morrison, J. F., Meth. Enzymol., 63:437-467 (1979)).

[1] = system: Set-2 cells, which express the JAK2V617F mutant protein; assay: STAT5 phosphorylation in Set-2 cells (JAK2-dependent signaling, MSD); type: cell-based; details: Homo sapiens, read-out: pSTAT5 SET2 EC50
Procedure: The activities of compounds were determined in cell-based assays that are designed to measure JAK2-dependent signaling or proliferation. Compounds were serially diluted in DMSO and incubated with Set-2 cells (German Collection of Microorganisms and Cell Cultures (DSMZ); Braunschweig, Germany), which express the JAK2V617F mutant protein, in 96-well microtiter plates for 1 hr at 37° C. in RPMI medium at a final cell density of 100,000 cells per well and a final DMSO concentration of 0.57%. Compound-mediated effects on STATS phosphorylation were then measured in the lysates of incubated cells using the Meso Scale Discovery (MSD) technology (Gaithersburg, Md.) according to the manufacturer's protocol and EC50 values were determined. Alternatively, serially diluted compounds were added to 384-well microtiter plates in RPMI medium with 10% fetal bovine serum (Invitrogen Corp.; Carlsbad, Calif.) at a final cell density of 2500 cells per well and a final DMSO concentration of 0.3% and incubated at 37° C. for 72 hours. Cell viability was then determined using the CellTiter-Glo® Luminescent Cell Viability Assay according to the manufacturer's protocol (Promega; Madison, Wis.) and EC50 values were determined.

human TYK2 kinase domain = human TYK2 kinase domain (Homo sapiens (Human), UniProt P29597); assay: TYK2 Inhibition Assay Protocol (Caliper LabChip peptide phosphorylation); type: biochemical; details: enzymatic activity, 25 uM ATP; read-out: TYK2i Ki
Excerpt: as §1, §2

human JAK3 kinase domain = human JAK3 kinase domain (Homo sapiens (Human), UniProt P52333); assay: biochemical; type: biochemical
Procedure: The activity of the JAK1, JAK2, JAK3 or TYK2 kinase domains was measured in vitro by monitoring phosphorylation of JAK3 derived peptides using the Caliper LabChip technology.
as §2, with “JAK3” for “JAK1 or TYK2”, “specifications.” for “specifications. Ki values were then determined using the Morrison tight binding model (Morrison, J. F., Biochim. Biophys. Acta. 185:269-296 (1969); William, J. W. and Morrison, J. F., Meth. Enzymol., 63:437-467 (1979)).”

TF-1 cells = assay: EPO-stimulated STAT5 phosphorylation in TF-1 cells (JAK2-dependent signaling, MSD); type: cell-based; details: Homo sapiens, read-out: EPO pSTAT5 TF1 EC50
Procedure: The activities of compounds were determined in cell-based assays that are designed to measure JAK1 or JAK2-dependent signaling. Compounds were serially diluted in DMSO and incubated with TF-1 cells (American Type Culture Collection (ATCC); Manassas, Va.) in 384-well microtiter plates in OptiMEM medium without phenol red, 1% Charcoal/Dextran stripped FBS, 0.1 mM NEAA, 1 mM sodium pyruvate (Invitrogen Corp.; Carlsbad, Calif.) at a final cell density of 100,000 cells per well and a final DMSO concentration of 0.2%. Human recombinant IL-6 (R&D systems; Minneapolis, Minn.) or EPO (Invitrogen Corp.; Carlsbad, Calif.) was then added at a final concentration of 30 ng/mL or 10 Units/mL, respectively, to the microtiter plates containing the TF-1 cells and compound and the plates were incubated for 30 min at 37° C. Compound-mediated effects on STAT3 or STATS phosphorylation were then measured in the lysates of cells incubated in the presence of IL-6 or EPO, respectively, using the Meso Scale Discovery (MSD) technology (Gaithersburg, Md.) according to the manufacturer's protocol and EC50 values were determined.

[2] = enzymatic activity, 5 uM ATP, read-out: JAK3 Ki
[3] = 0.5 h, TF-1 cells, EPO 10 Units/mL, 30 min

human TYK2 kinase domain, sequence (P29597 873-1187): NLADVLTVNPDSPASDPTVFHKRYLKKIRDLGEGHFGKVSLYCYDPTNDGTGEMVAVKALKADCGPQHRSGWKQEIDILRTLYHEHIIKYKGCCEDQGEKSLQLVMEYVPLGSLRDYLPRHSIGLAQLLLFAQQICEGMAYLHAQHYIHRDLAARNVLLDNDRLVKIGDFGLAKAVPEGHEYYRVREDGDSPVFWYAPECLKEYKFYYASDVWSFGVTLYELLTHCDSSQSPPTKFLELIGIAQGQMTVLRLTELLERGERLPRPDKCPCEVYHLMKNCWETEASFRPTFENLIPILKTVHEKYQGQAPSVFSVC
human JAK3 kinase domain, sequence (P52333 783-1124): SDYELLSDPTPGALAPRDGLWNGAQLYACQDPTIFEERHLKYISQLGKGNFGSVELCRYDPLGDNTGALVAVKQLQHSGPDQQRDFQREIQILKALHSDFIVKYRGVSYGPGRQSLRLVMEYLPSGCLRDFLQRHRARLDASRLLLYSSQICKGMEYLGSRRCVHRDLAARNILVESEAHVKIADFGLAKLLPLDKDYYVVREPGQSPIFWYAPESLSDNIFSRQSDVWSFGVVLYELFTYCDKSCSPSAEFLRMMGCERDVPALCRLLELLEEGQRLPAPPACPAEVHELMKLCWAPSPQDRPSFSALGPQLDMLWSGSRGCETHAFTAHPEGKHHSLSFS
human JAK1 kinase domain, sequence (P23458 852-1154): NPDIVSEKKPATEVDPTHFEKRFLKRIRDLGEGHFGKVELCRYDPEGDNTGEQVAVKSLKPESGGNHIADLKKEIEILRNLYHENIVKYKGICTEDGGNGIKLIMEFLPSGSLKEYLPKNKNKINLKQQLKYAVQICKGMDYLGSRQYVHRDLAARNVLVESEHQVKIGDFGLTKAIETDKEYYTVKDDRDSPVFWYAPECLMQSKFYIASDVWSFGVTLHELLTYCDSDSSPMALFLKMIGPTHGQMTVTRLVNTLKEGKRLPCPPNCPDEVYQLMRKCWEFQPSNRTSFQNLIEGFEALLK

Row | Compound | pKi (human JAK1 kinase domain) | pKi (human TYK2 kinase domain) | pKi (human JAK3 kinase domain; [2]) | pEC50 ([1]; Set-2 cells, 1 hr incubation) | pEC50 (TF-1 cells; [3]) | pEC50 ([1]; SET-2, 1 h) | pEC50 (TF-1 cells; TF-1, 0.5 h) | pKi (human JAK3 kinase domain)
1 | Cc1nc(-c2ccccc2C)c(NC(=O)c2cnn3ccc(N)nc23)s1 [Example 231, 5-amino-pyrazolo[1,5-a]pyrimidine-3-carboxylic acid (2-methyl-4-o-tolyl-thiazol-5-yl)-amide] | 7.82 | 7.36 | 7.91 | – | – | 7.10 | 6.64 | –
2 | Nc1ccn2ncc(C(=O)Nc3ccnn3-c3cc(Cl)ccc3Cl)c2n1 [Example 277, 5-Amino-pyrazolo[1,5-a]-pyrimidine-3-carboxylic acid [2-(2,5-dichloro-phenyl)-2H-pyrazol-3-yl]-amide] | 7.75 | 7.36 | 7.60 | 7.36 | 6.83 | – | – | –
3 | O=C(N[C@H]1CC[C@H](O)CC1)c1cnn2ccc(NC3CCc4ccccc43)nc12 (stereo partly shown) [Example 299, 5-(Indan-1-ylamino)-pyrazolo[1,5-a]pyrimidine-3-carboxylic acid (4-hydroxy-cyclohexyl)-amide] | 7.54 | 7.29 | – | 6.59 | 6.64 | – | – | 7.84
4 | Cc1cc(NC(=O)c2cnn3ccc(Nc4cccc(C(F)(F)F)c4)nc23)on1 [Example 240, 5-(3-Trifluoromethyl-phenylamino)-pyrazolo-[1,5-a]pyrimidine-3-carboxylic acid (3-methyl-isoxazol-5-yl)-amide] | 7.44 | 7.20 | 7.02 | 6.44 | 6.13 | – | – | –
5 | Cc1cc(NC(=O)c2cnn3ccc(N)nc23)n(-c2cc(Cl)ccc2C)n1 [Example 226] | 8.13 | 7.48 | 7.80 | 7.77 | 6.99 | – | – | –

Continued by rising pKi (human JAK1 kinase domain), values first:

Row | pKi (human JAK1 kinase domain) | pKi (human TYK2 kinase domain) | pKi (human JAK3 kinase domain; [2]) | pEC50 ([1]; Set-2 cells, 1 hr incubation) | pEC50 (TF-1 cells; [3]) | Compound | pEC50 ([1]; SET-2, 1 h) | pEC50 (TF-1 cells; TF-1, 0.5 h) | pKi (human JAK3 kinase domain)
6 | 7.33 | 6.82 | 7.40 | 6.77 | 6.68 | O=C(NC1CCOCC1)c1cnn2ccc(NC3Cc4ccccc4C3)nc12 [Example 297, 5-(Indan-2-ylamino)-pyrazolo[1,5-a]pyrimidine-3-carboxylic acid (tetrahydro-pyran-4-yl)-amide] | – | – | –
7 | 7.52 | 7.01 | 7.54 | 6.52 | 6.43 | Cc1cc(NC(=O)c2cnn3ccc(N)nc23)n(-c2ccccc2C)n1 [Example 343, 5-Amino-pyrazolo[1,5-a]-pyrimidine-3-carboxylic acid (5-methyl-2-o-tolyl-2H-pyrazol-3-yl)-amide] | – | – | –
8 | 8.55 | 8.39 | 8.77 | 7.74 | 7.26 | Nc1ccn2ncc(C(=O)Nc3c[nH]nc3-c3cc(Cl)ccc3Cl)c2n1 [Example 248, 5-Amino-pyrazolo[1,5-a]-pyrimidine-3-carboxylic acid [3-(2,5-dichloro-phenyl)-1H-pyrazol-4-yl]-amide] | – | – | –
